Laboratory results published in patent publication US4066743A, “X-ray contrast agents” (Mallinckrodt, Inc., priority 1976, dated 1978).
Where two headings read alike, the source gives them in different places.

Legend:
[1] = water solubility of the sodium salt; type: physicochemical
Sprague Dawley rats = assay: Intracisternal Toxicity in Rats; type: in vivo; details: N-methylglucamine (meglumine) salt, 2 day observation, Litchfield and Wilcoxon
Experimental: (§1) Toxicity evaluations by three different techniques were carried out on solutions of the N-methylglucamine salts of 3-acetamido-5-(4,4-bishydroxymethyl-2-oxazolinyl)-2,4,6-triiodobenzoic acid and 3-acetamido-5-(4-methyl-4-hydroxymethyl-2-oxazolinyl)-2,4,6-triiodobenzoicacid. The techniques utilized are outlined below.
III. Intracisternal Toxicity in Rats
Sprague Dawley (Carworth) rats were used. The method used was a variation of the procedure outlined by Melartin et al. (Invest. Rad. 5:13-21, 1970). After dosing, the animals were housed individually, and observed for immediate reactions and periodically for a 2 day observation period. The LD50 values were calculated according to the method of Litchfield and Wilcoxon, (J. of Pharmac. and Exptl. Therap. 96:[…], 1949).

Swiss Albino mice [2] = assay: Acute Intravenous Toxicity Studies in Mice; type: in vivo; details: N-methylglucamine (meglumine) salt, i.v. lateral tail vein, 1 ml./min, 7 day observation, Litchfield and Wilcoxon
Experimental: as §1
I. Acute Intravenous Toxicity Studies in Mice
Swiss Albino mice (Charles River) were dosed in the lateral tail vein with solutions of the iodinated compounds containing 50.4% iodine in the case of 3-acetamido-5-(4,4-bishydroxymethyl-2-oxazolinyl)-2,4,6-triiodobenzoic acid and 28.2% iodine in the case of 3-acetamido-5-(4-methyl-4-hydroxymethyl-2-oxazolinyl)-2,4,6-triiodobenzoicacid, injected at the rate of 1 ml./min. […] The LD50 values were calculated by the method of Litchfield and Wilcoxon (J. of Pharmac. and Exptl. Therap. 96: 99-113, 1949).

Swiss Albino mice [3] = assay: Intracerebral Toxicity in Mice; type: in vivo; details: N-methylglucamine (meglumine) salt, 7 day observation, Litchfield and Wilcoxon
Experimental: as §1
II. Intracerebral Toxicity in Mice
Swiss Albino mice (Charles River) were used. Fixed volumes of solutions of various concentrations of the iodinated compounds were injected intracerebrally via a 27 gauge needle, (1/4 inch length) according to the method of Haley, et al. (Br. J. of Pharmac. 12:12-15, 1957). The animals were observed immediately after injections and daily throughout a 7 day observation period. The LD50 values were calculated by the method of Litchfield and Wilcoxon (J. of Pharmac. and Exptl. Therap. 96:99-113, (1949)).

[4] = read-out: water solubility of the sodium salt

Row | SMILES | solubility [1, 4] [mg/mL] | LD50 of Meglumine Salt, Intracisternal (Rats) (Sprague Dawley rats) | LD50 of Meglumine Salt, I.V. (Mice) (Swiss Albino mice [2]) | LD50 of Meglumine Salt, Intracerebral (Mice) (Swiss Albino mice [3]) | solubility ([1]; w/v not given, read-out: solubility of the sodium salt) [mg/mL]
1 | Nc1c(I)c(C(=O)O)c(I)c(C(=O)NC(CO)(CO)CO)c1I [Example 3, 5-Amino-N-[tris(hydroxymethyl)methyl]-2,4,6-triiodoisophthalamic Acid] | ~800 | – | – | – | –
2 | CC(=O)Nc1c(I)c(C(=O)O)c(I)c(C2=NC(CO)(CO)CO2)c1I [Example 4, 3-Acetamido-5-(4,4-bis(hydroxymethyl)-2-oxazolinyl)-2,4,6-triiodobenzoic Acid] | 958 | 55 mg. contained iodine/kg. anima | 5,522 mg. contained iodine/kg. anima | 485 mg. contained iodine/kg. anima | –
3 | CC(CO)(CO)NC(=O)c1c(I)c(N)c(I)c(C(=O)O)c1I [Example 6, 5-Amino-N-[2-(1,3-dihydroxy-2-methyl)propyl]-2,4,6-triiodoisophthalamic Acid] | ~830 | – | – | – | –
4 | CC(=O)Nc1c(I)c(C(=O)O)c(I)c(C2=NC(C)(CO)CO2)c1I (stereo not shown) [Example 8, 3-Acetamido-5-(4-methyl-4-hydroxymethyl-2-oxazolinyl)-2,4,6-triiodobenzoic Acid] | – | 28 mg. contained iodine/kg. anima | 5,500 mg. contained iodine/kg. anima | 280 mg. contained iodine/kg. anima | 738
